Measured values published in publication PMC3353318 (Bioorganic & Medicinal Chemistry, 2011).
Several values for one entry are separate records, joined by “and”; a condition that tells them apart may be missing. Identical values can stand only once. Entries after “also recorded” stand apart in the source; their conditions may differ. Like-named read-outs stand apart in the source and are kept apart here.

Key:
NMDA receptors = assay type: cell-based, rat
[1] = test system: bloodstream form T. brucei (strain 427); assay type: cell-based, Trypanosoma brucei
[2] = test system: influenza A/Puerto Rico/8/34 (H1N1); test: Influenza virus assay, A/H1N1; assay type: cell-based; details: read-out: antiviral EC50 against influenza A/H1N1 subtype
[3] = test system: vesicular stomatitis virus (VSV) in HeLa cells; details: for EC50: read-out: EC50 (50% antiviral effective concentration) against VSV
VSV in HEL cells = assay type: cell-based, vesicular stomatitis virus
[4] = cited from earlier work
[5] = read-out: IC50, Glutamate (100 μM)

“N-Methyl-6,7,8,9,10,11-hexahydro-9-methyl-5,7:9,11-dimethano-5H-benzocyclononen-7-amine hydrochloride [Compound 8]” showed an IC50 (NMDA receptors; [5]) of 455 ± 216 µM and an IC50 (NMDA receptors; read-out: IC50, NMDA (100 μM)) of 19.4 ± 3.3 µM.
“N-Benzyl-6,7,8,9,10,11-hexahydro-9-methyl-5,7:9,11-dimethano-5H-benzocyclononen-7-amine hydrochloride [Compound 6]” gave an IC50 ([1]; read-out: IC50 against cultured bloodstream form T. brucei) of 3 ± 0.32 µM, an IC90 ([1]; read-out: IC90 against cultured bloodstream form T. brucei) of 6.55 ± 0.32 µM and an EC50 [2] of 10 µM. For the same compound, the “NMDA receptor antagonist activity (in words)” value (NMDA receptors) was “devoid of activity; also recorded: not active as NMDA receptor antagonist”.
In the case of “N-Benzyl-N-methyl-6,7,8,9,10,11-hexahydro-9-methyl-5,7:9,11-dimethano-5H-benzocyclononen-7-amine hydrochloride [Compound 7]”, the “NMDA receptor antagonist activity (in words)” value (NMDA receptors) is reported as “devoid of activity”.
With “N-Propargyl-6,7,8,9,10,11-hexahydro-9-methyl-5,7:9,11-dimethano-5H-benzocyclononen-7-amine hydrochloride [Compound 9]” the “IC90 lower than that of rimantadine (fold)” value ([1]; versus rimantadine) was “more than 4 times”, the IC50 (NMDA receptors; [5]) was greater than 500 µM and the IC50 (NMDA receptors; read-out: IC50, NMDA (100 μM)) was 27.5 ± 13.2 µM.
With “N,N-dipropargyl-6,7,8,9,10,11-hexahydro-9-methyl-5,7:9,11-dimethano-5H-benzocyclononen-7-amine hydrochloride [Compound 10]” the “selectivity index (ratio of cytotoxic to antiviral concentration)” value [3] was 25, the EC50 [3] was 4 µM and the “activity against VSV in HEL cells (in words)” value (VSV in HEL cells) was “not active”.
In the case of “6,7,8,9,10,11-Hexahydro-9-methyl-5,7:9,11-dimethano-5H-benzocyclononen-7-amine hydrochloride [Compound 3]”, the IC50 (NMDA receptors; [5]) is reported as 22 ± 3.9 µM and the IC50 (NMDA receptors; read-out: IC50, NMDA (100 μM)) is reported as 13.6 ± 3.4 µM.
In the case of `c1ccc(CNC23OC4C5C6CC(C7C6C4C72)C53)cc1` (stereo not shown) [NGP1-01], the “stability in aqueous medium (in words)” value [4] is listed as “decomposes easily in aqueous medium”.
In the case of “N-(6,7,8,9,10,11-hexahydro-9-methyl-5,7:9,11-dimethano-5H-benzocyclononen-7-yl)piperidine hydrochloride [Compound 12]”, the EC50 [3] is reported as 54 µM, the “activity against VSV in HEL cells (in words)” value (VSV in HEL cells) is reported as “not active” and the IC50 (NMDA receptors; [5]) is reported as greater than 500 µM.
In the case of “N,N-Dimethyl-6,7,8,9,10,11-hexahydro-9-methyl-5,7:9,11-dimethano-5H-benzocyclononen-7-amine hydrochloride [Compound 11]”, the “inhibitory activity against cultured bloodstream form T. brucei (in words)” value ([1]; at 5 μg mL^−1 (15–20 μM)) is reported as “little or no inhibitory activity”, the IC50 (NMDA receptors; [5]) is reported as 87 ± 28 µM and the IC50 (NMDA receptors; read-out: IC50, NMDA (100 μM)) is reported as 12 µM and 11.8 µM.
